Assay results as given in US20180085362A1, “COMBINATION OF PHOSPHATIDYLINOSITOL-3-KINASE (PI3K) INHIBITOR AND A MTOR INHIBITOR” (Novartis AG, priority 2011, published 2018).

How the values were obtained:
[1] = Toxicity (body weight, deaths) in DU145 xenograft study; assay type: in vivo, nude mice (nu/nu); set-up: key to Mean BW Nadir: — indicates no decrease in mean body weight is observed; details: for Deaths (TR/NTR): ten mice
Procedure: Paclitaxel is administered via bolus tail veil injections (i.v.) once daily on alternate days for five doses (qod×5). The dosing volume, 10 mL/kg ( )0.2 mL/20 g mouse), is scaled to the weight to each animal as determined on the day of dosing, except on weekends, when the Friday BWs are carried forward.
11 groups of nude mice (n=10 per group) are treated as follows: Group 1 mice receives Vehicle 1 and Vehicle 2, and served as controls for all analyses. […] Groups 5-7 receives monotherapies with 2.5, 5, and 10 mg/kg RAD001, respectively. […] Group 11 receives 25 mg/kg paclitaxel.
Animals are weighed on Days 1-5, and on each treatment day (except weekend days) until the end of the study. Acceptable toxicity for the maximum tolerated dose is defined as a group mean BW loss of less than 15% during the test, and not more than one treatment-related (TR) death among ten animals. Any animal with BW losses exceeding 20% for one measurement, is to be euthanized and classified as a TR death, unless it is the first death in the group. Non-treatment-related (NTR) deaths are to be categorized as NTRa (due to accident or error), NTRu (due to unknown causes), or NTRm (necropsy-confirmed tumor dissemination by invasion and/or metastasis).

[2] = tested on: DU145 human prostate carcinoma; experiment: Tumor growth inhibition, DU145 human prostate carcinoma nude mouse xenograft model; details: for Mean volume Change: Day 1 to Day 21; for T/C: Day 21
[3] = tested on: SKBR-3 human breast cancer cell line; experiment: CellTiter-Glo cell proliferation assay, dose matrix, SKBR-3; assay type: cell-based; details: SKBR-3, 72 hrs; for Amax, the maximum fraction of inhibition: fraction growth inhibition compare to DMSO control, everolimus 1 nM-27 nM, Compound I 4 nM-3 μM
Procedure: The human breast cancer cell line SKBR-3 is purchased from American Type Cell Collection. The SKBR-3 human breast cancer cell line is HER2 amplified.
Single agent dose responding curves, IC50, IC90, and the Synergy are all analyzed using Chalice software (CombinatoRx, Cambridge Mass.). Synergy is calculated by comparing a combination's response to those of its single agents, against the drug-with-itself dose-additive reference model. Deviations from dose additivity can be assessed visually on an Isobologram or numerically with a Combination Index. Excess inhibition compare to additivity can also be plotted as a full dose-matrix chart to capture where the synergies occur. To quantify the overall strength of combination effects, a volume score VHSA=ΣX,Y, InfX InfY (Idata−IHSA) is also calculated between the data and the highest-single-agent surface, normalized for single agent dilution factors fX,fY.
The cells are plated at 3000 cells per well in 384 well plates in triplicates, and treated with compound for 72 hrs before the measurement (FIG. 13).

[4] = tested on: T47-D human breast cancer cell line; experiment: CellTiter-Glo cell proliferation assay, dose matrix, T47-D; assay type: cell-based; details: 72 hrs; for Amax (maximum fraction of inhibition): fraction growth inhibition compare to DMSO control, everolimus 1 nM-27 nM, Compound I 4 nM-3 μM
Procedure: The human breast cancer cell line T47-D is purchased from American Type Cell Collection. The T47-D human breast cancer cell line includes PIK3CA mutation.
(§1) Cell viability is determined by measuring cellular ATP content using the CellTiter-Glo® Luminescent Cell Viability Assay (Promega #G7573) according to manufacturer's protocol.
(§2) Single agent dose responding curves, IC50, IC90, and the Synergy are all analyzed using Chalice software (CombinatoRx, Cambridge Mass.). Synergy is calculated by comparing a combination's response to those of its single agents, against the drug-with-itself dose-additive reference model. Deviations from dose additivity can be assessed visually on an Isobologram or numerically with a Combination Index. Excess inhibition compare to additivity can also be plotted as a full dose-matrix chart to capture where the synergies occur. To quantify the overall strength of combination effects, a volume score VHSA=ΣX,Y InfX InfY (Idata−IHSA) is also calculated between the data and the highest-single-agent surface, normalized for single agent dilution factors fX,fY.
The experiment setup is identical to the experiment procedure described above for the SKBR-3 model (FIG. 15).

[5] = tested on: ZR-75-1 human breast cancer cell line; experiment: CellTiter-Glo cell proliferation assay, dose matrix, ZR-75-1; assay type: cell-based; details: for Amax (maximum fraction of inhibition): ZR-75-1, 72 hrs, fraction growth inhibition compare to DMSO control, everolimus 1 nM-27 nM, Compound I 4 nM-3 μM
[6] = tested on: BT-474 human breast cancer cell line; experiment: CellTiter-Glo cell proliferation assay, dose matrix, BT-474; assay type: cell-based; details: BT-474, 72 hrs; for Amax (maximum fraction of inhibition): fraction growth inhibition compare to DMSO control, everolimus 1 nM-27 nM, Compound I 4 nM-3 μM
Procedure: as §1, §2
The experiment setup is identical to the experiment procedure described above for the SKBR-3 model (FIG. 14).

[7] = Group 11: Paclitaxel 25 mg/kg i.v. qod×5
[8] = Group 5: RAD001 2.5 mg/kg p.o. qd×21
[9] = Group 6: RAD001 5 mg/kg p.o. qd×21
[10] = Group 7: RAD001 10 mg/kg p.o. qd×21
[11] = single agent, read-out: IC50 (cell growth)
[12] = Group 2: Compound I 12.5 mg/kg p.o. qd×21
[13] = Group 3: Compound I 25 mg/kg p.o. qd×21
[14] = Group 4: Compound I 50 mg/kg p.o. qd×21

SMILES: CC(=O)O[C@H]1C(=O)[C@@]2(C)[C@H]([C@H](OC(=O)c3ccccc3)[C@]3(O)C[C@H](OC(=O)[C@H](O)[C@@H](NC(=O)c4ccccc4)c4ccccc4)C(C)=C1C3(C)C)[C@]1(OC(C)=O)CO[C@@H]1C[C@@H]2O [Paclitaxel]
- Mean BW Nadir ([1]; Group 11: Paclitaxel 25 mg/kg i.v. qod×5, % change from Day 1, nadir Day 12): −1.9%
- Deaths (TR/NTR) [1, 7]: 0/1
- Mean volume Change [2, 7]: 898 mm^3
- T/C [2, 7]: (TIC = 115%)
- Statistical Signif. vs. G1 ([2]; Group 11: Paclitaxel 25 mg/kg, Mann-Witney U test): ns (using

SMILES: CO[C@H]1C[C@@H]2CC[C@@H](C)[C@@](O)(O2)C(=O)C(=O)N2CCCC[C@H]2C(=O)O[C@H]([C@H](C)C[C@@H]2CC[C@@H](OCCO)[C@H](OC)C2)CC(=O)[C@H](C)/C=C(\C)[C@@H](O)[C@@H](OC)C(=O)[C@H](C)C[C@H](C)/C=C/C=C/C=C/1C [everolimus (RAD001), (1R,9S,12S,15R,16E,18R,19R, 21R,23S,24E,26E,28E,30S,32S,35R)-1,18-dihydroxy-12-{(1R)-2-[(1 S,3R,4R)-4-(2-hydroxyethoxy)-3-methoxycyclohexyl]-1-methylethyl}-19,30-dimethoxy-15,17,21,23,29,35-hexamethyl-11,36-dioxa-4-aza-tricyclo[30.3.1.04,9] hexatriaconta-16,24, 26,28-tetraene-2,3,10,14,20-pentaone]
- Amax, the maximum fraction of inhibition [3]: 0.32
- IC50 (cell proliferation) ([3]; single agent, 1 nM-27 nM): never achieved an IC50
- Amax (maximum fraction of inhibition) [4]: 0.37
- IC50 (cell growth) ([4]; single agent): never achieved an IC50
- IC50 ([5]; Homo sapiens, ZR-75-1, 72 h, read-out: IC50 (cell proliferation)): ~15 nM
- Amax (maximum fraction of inhibition) [5]: 0.55
- Mean BW Nadir [1, 8]: —
- Deaths (TR/NTR) [1, 8]: 0/0
- Mean BW Nadir [1, 9]: —
- Deaths (TR/NTR) [1, 9]: 0/0
- Mean BW Nadir [1, 10]: —
- Deaths (TR/NTR) [1, 10]: 0/0
- Amax (maximum fraction of inhibition) [6]: 0.36
- IC50 (cell growth) ([6]; single agent): never achieves an IC50
- Mean volume Change [2, 8]: 424 mm^3
- T/C [2, 8]: (T/C = 54%)
- Statistical Signif. vs. G1 ([2]; Group 5: RAD001 2.5 mg/kg, Kruskal-Wallis with Dunn's test): ns (vs. G1)
- Mean volume Change [2, 9]: 269 mm^3
- T/C [2, 9]: (T/C = 43%)
- Statistical Signif. vs. G1 ([2]; Group 6: RAD001 5 mg/kg, Kruskal-Wallis with Dunn's test): * (vs. G1) (* = P < 0.05)
- Mean volume Change [2, 10]: 341 mm^3
- T/C [2, 10]: (T/C = 43%)
- Statistical Signif. vs. G1 ([2]; Group 7: RAD001 10 mg/kg, Kruskal-Wallis with Dunn's test): ns (vs. G1)

SMILES: Cc1nc(NC(=O)N2CCC[C@H]2C(N)=O)sc1-c1ccnc(C(C)(C)C(F)(F)F)c1 [Compound I, (S)-Pyrrolidine-1,2-dicarboxylic acid 2-amide 1-({4-methyl-5-[2-(2,2,2-trifluoro-1,1-dimethyl-ethyl)-pyridin-4-yl]-thiazol-2-yl}-amide)]
- Amax, the maximum fraction of inhibition [3]: 0.40
- Amax (maximum fraction of inhibition) [4]: around 0.67
- IC50 [4, 11]: ~330 nM
- Amax (maximum fraction of inhibition) [5]: around 0.16
- Mean BW Nadir [1, 12]: —
- Deaths (TR/NTR) [1, 12]: 0/0
- Mean BW Nadir [1, 13]: —
- Deaths (TR/NTR) [1, 13]: 0/0
- Mean BW Nadir ([1]; Group 4: Compound I 50 mg/kg p.o. qd×21, % change from Day 1, nadir Day 8): −8.1%
- Deaths (TR/NTR) [1, 14]: 3/0
- Amax (maximum fraction of inhibition) [6]: around 0.53
- IC50 [6, 11]: ~3000 nM
- Mean volume Change [2, 12]: 501 mm^3
- T/C [2, 12]: (T/C = 64%)
- Statistical Signif. vs. G1 ([2]; Group 2: Compound I 12.5 mg/kg, Kruskal-Wallis with Dunn's test): ns (vs. G1)
- Mean volume Change [2, 13]: 129 mm^3
- Statistical Signif. vs. G1 ([2]; Group 3: Compound I 25 mg/kg, Kruskal-Wallis with Dunn's test): *** (vs. G1) (*** = P < 0.001)
- Mean volume Change [2, 14]: 150 mm^3
- T/C [2, 14]: (T/C = 19%)
